# Results published in US9616062B2, “Cyclin dependent kinase inhibitors and methods of use” (priority 2009, dated 2017).
# Key:
# [1] = system: irradiated (6.5 Gy) wild type mice (FVB/n); test: Myelosuppression assay: complete blood counts after sub-lethal irradiation, with or without erythropoietin; assay type: in vivo, mouse; conditions: PD0332991 150 mg/kg oral gavage just prior to irradiation, EPO at 72, 96, 120 h post-irradiation, day 17
# Protocol: FIG. 1: CDK4/6 inhibition potentiates the efficacy of erythropoietin-mediated recovery of the erythroid cell lineage following DNA damage. Cohorts (8 mice per cohort) of irradiated (6.5 Gy) wild type mice (FVB/n) are given placebo, erythropoietin (EPO), a CDK4/6 inhibitor (PD0332991), or a combination of CDK4/6 inhibitor and EPO (PD0332991+EPO). Serial blood draws are performed at day 17 after treatment and complete blood counts assessed to determine the number of red blood cells, various leukocytes subpopulations, and platelets. The effect of treatment on platelets is shown in the panel on the upper left, red blood cells (RBC) in the panel on the upper right, hemoglobin (Hb) in the panel on the lower left, and hematocrit (HCT) in the panel on the lower right. Error bars represent +/−SEM. […]
# Baseline complete blood cell (CBC) anaylsis was performed on a subset of mice prior to drug administration. […] Blood was analyzed using a Hemavet CBC-Diff Veterinary Hematology System (Drew Scientific Inc., Dallas, Tex., United States of America). […]
# Cohorts of FVB wild type mice were given placebo or CDK4/6 inhibitor (PD0332991, 150 mg/kg oral gavage) just prior to receiving a sub-lethal dose of irradiation (6.5 Gcy). […] Complete blood counts (CBCs) were assessed to determine the number of red blood cells, various leukocytes subpopulations and platelets.
# [2] = system: primary human renal proximal tubule epithelial cells; test: γH2AX flow cytometry assay of etoposide-induced DNA damage; assay type: cell-based; conditions: 0, 100 nM, 300 nM or 1 μM for 16 h, then 2.5 μM etoposide for 8 h
# Protocol: Cells were pretreated for 16 hours with PD0332991 followed by 8 hours with etoposide (Etop). Cells were collected, fixed and stained with anti-γH2AX FITC and analyzed by flow cytometry. Data was analyzed using FlowJo (Treestar, Inc., Ashland, Oreg., United States of America). The % γH2AX positive cells are shown in the accompanying graph.
# Primary normal human renal proximal epithelial cells (American Type Culture Collection (ATCC), Manassas, Va., United States of America) were cultured in renal epithelial cell basal media supplemented with renal epithelial cell growth kit according to the manufacturer's recommendations. […] For the γH2AX assay, cells were fixed, permeabilized, and stained with anti-γH2AX as per γH2AX Flow Kit (Millipore, Billerica, Mass., United States of America). γH2AX levels were assessed by flow cytometry. Cell proliferation was assessed by seeding 1×10^3 cells per well in a 96-well tissue culture plate in 100 μL of growth medium. […] At the end of the recovery period, cell number was quantified using CellTiter-Glo® (Promega, Fitchburg, Wis., United States of America) or WST-1 reagent (TaKaRa Bio USA, Madison, Wis., United States of America). Cellular cytotoxicity was assessed using the TOXILIGHT™ Bioassay kit (Lonza, Basel, Switzerland) which measures cytolysis by quantifying the release of Adenylate Kinase into the culture media. […]
# [3] = system: germinal center formation; test: Germinal center formation in mice (Ki67 immunohistochemistry); assay type: in vivo, mouse; conditions: 150 mg/kg by oral gavage
# Protocol: Mice were treated with PD0332991 (150 mg/kg by oral gavage). Germinal center formation was assessed by Ki67 immunohistochemistry.
# Acute, pharmacologic inhibition of CDK4/6 suppresses lymphocyte proliferation with the most pronounced effect on memory T cell homeostatic proliferation and germinal center formation in mice. To determine whether inhibiting CDK4/6 affects memory cell generation and maintenance, mice were treated with selective CDK4/6 inhibitors, PD 0332991 or an unrelated selective CDK4/6 inhibitor, 2BrIC. 2BrIC was synthesized by OTAVA Chemicals (Kiev, Ukraine) and can be prepared according to methods described in Zhu et al., J. Med. Chem. 46, 2027-2030 (2003).
# Cohorts of wild type mice were treated with vehicle or a CDK4/6 inhibitor as in FIG. 11. […] Unstimulated mice were treated for 24 hours with PD0332991 and homeostatic B cell proliferation measured by Ki67 staining after appropriate sorting. Similar results were obtained using BrdU incorporation to measure splenic B cell proliferation. Similar experiments were undertaken in human cells with B cell receptor stimulation as described in FIG. 12.
compound,measurement,setting,value
"CC(=O)c1c(C)c2cnc(Nc3ccc(N4CCNCC4)cn3)nc2n(C2CCCC2)c1=O [PD0332991, 6-acetyl-8-cyclopentyl-5-methyl-2-(5-piperazin-1-yl-pyridin-2-ylamino)-8H-pyrido-[2,3-d]-pyrimidin-7-one]",platelet counts (CBC),[1],improved platelet counts
same,etoposide-induced DNA damage (% γH2AX positive cells),[2],abrogates etoposide-induced DNA damage
same,germinal center formation (Ki67),[3],selectively suppresses germinal center formation
